In BindingDB's records for doi:10.1016/j.bioorg.2011.05.001 (Medical University of Lodz, 2011):
Where a name gives a salt, the structure may show the parent alone.

What was measured:
Acetylcholinesterase = Acetylcholinesterase (Electrophorus electricus, UniProt O42275); assay: Enzyme Assay
From the text: (§1) Enzyme activity using acetylcholinesterase (AChE) and butyrylcholinesterase (BChE).

[1] = target: Carboxylic ester hydrolase (Equus caballus, UniProt Q9N1N9); assay: Enzyme Assay
From the text: as §1

Acetylcholinesterase, sequence (O42275 whole entry): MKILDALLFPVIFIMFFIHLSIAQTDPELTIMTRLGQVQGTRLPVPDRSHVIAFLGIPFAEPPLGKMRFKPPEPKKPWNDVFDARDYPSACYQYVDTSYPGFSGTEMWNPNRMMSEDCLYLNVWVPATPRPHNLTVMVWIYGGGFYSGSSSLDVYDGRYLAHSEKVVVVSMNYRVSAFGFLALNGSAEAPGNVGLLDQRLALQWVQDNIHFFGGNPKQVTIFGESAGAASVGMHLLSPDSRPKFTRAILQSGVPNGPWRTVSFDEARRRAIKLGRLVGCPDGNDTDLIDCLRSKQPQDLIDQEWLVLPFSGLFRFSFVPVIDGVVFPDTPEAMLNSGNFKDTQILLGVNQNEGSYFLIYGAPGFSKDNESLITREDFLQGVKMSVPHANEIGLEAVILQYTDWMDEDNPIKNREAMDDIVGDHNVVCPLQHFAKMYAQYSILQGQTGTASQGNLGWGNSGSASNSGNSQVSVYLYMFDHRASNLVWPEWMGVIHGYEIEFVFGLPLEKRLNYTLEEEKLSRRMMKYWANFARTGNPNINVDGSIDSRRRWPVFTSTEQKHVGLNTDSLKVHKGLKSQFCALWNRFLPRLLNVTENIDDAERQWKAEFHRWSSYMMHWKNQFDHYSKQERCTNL
Carboxylic ester hydrolase, sequence (Q9N1N9 whole entry): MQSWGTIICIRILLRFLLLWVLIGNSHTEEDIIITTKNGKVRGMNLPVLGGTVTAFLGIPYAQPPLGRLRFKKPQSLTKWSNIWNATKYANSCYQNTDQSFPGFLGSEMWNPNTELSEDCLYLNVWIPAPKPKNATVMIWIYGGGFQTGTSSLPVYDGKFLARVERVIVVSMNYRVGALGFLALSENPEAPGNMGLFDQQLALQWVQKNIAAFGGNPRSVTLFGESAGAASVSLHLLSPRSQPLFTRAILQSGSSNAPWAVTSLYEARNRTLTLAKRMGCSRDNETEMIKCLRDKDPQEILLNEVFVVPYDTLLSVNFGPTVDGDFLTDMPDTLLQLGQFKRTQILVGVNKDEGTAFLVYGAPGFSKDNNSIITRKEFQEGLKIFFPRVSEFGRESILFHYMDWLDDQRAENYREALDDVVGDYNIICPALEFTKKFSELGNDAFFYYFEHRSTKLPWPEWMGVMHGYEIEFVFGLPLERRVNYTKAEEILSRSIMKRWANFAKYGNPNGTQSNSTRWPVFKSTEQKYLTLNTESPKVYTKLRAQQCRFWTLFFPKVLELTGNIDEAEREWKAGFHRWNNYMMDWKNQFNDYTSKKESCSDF

Compound	IC50 (Acetylcholinesterase)	IC50 [1]
NNc1ccc(C(=O)NCCCCCNc2c3c(nc4ccccc24)CCCC3)cn1 [Nicotinamide hydrochloride analog, 6b]	308 nM	–
NNc1ccc(C(=O)NCCCCNc2c3c(nc4ccccc24)CCCC3)cn1 [Nicotinamide hydrochloride analog, 6a]	440 nM	1.45 nM
NNc1ccc(C(=O)NCCCCCCCNc2c3c(nc4ccccc24)CCCC3)cn1 [Nicotinamide hydrochloride analog, 6c]	721 nM	1.13 nM
